Measurements published in US4118583A, “Mixed esters of polyols” (Laboratories om Societe Anonyme, priority 1976, dated 1978).
Read-outs that look alike come from different tables or passages of the source.

Assays:
[1] = tested on: cholesterol and triglycerides; test: Hypocholesterolemiating and hypolipemiating activity in normolipemiating rats (Table III); type: in vivo; details: rat, gastric probe, equivalent of 75 mg/kg clofibrate every 12 hours, 10 days; for Triglycerides: untreated 1.13; for Cholesterol: untreated 90.79; for Cholesterol, decrease / Triglycerides, decrease: versus untreated
Procedure: Groups of 10 normolipemiating rats were treated for 10 days, by gastric probe, with the equivalent of 75 mg/kg of clofibrate, administered every 12 hours. After 10 days, 12 hours after the last administration, they were sacrificed and the cholesterol and triglycerides analysed (Table III).

[2] = Acute toxicity on the male rat, p.o. (Table I); details: in vivo, po
Procedure: The acute toxicity of compounds I to VI was determined on the male rat (Table I).

[3] = comparison value given in text, no source or test printed; cited from earlier work

Structure (SMILES) | Triglycerides [1] [mm mole/l.] | Cholesterol [1] [mg/100 ml] | Cholesterol, decrease [1] [%] | Triglycerides, decrease [1] [%] | LD50 [2] [mg/kg] | LD50 [3] [mg/kg]
CC(=O)Oc1ccccc1C(=O)OCC(COC(=O)C(C)(C)Oc1ccc(Cl)cc1)OS(=O)(=O)O (stereo not drawn) [Compound V] | 0.89 | 68.38 | 25 | 21 | > 5000 | –
CC(=O)Oc1ccccc1C(=O)OCC(COC(=O)C(C)(C)Oc1ccc(Cl)cc1)OC(C)=O (stereo not drawn) [Compound IV, 1-(acetylsalicyloxy)-3-(2-p-chlorophenoxy-2-methylpropionyloxy)-2-acetoxy-propane] | 0.97 | 72.12 | 21 | 14 | > 5000 | –
CC(=O)Oc1ccccc1C(=O)OC(COC(=O)C(C)(C)Oc1ccc(Cl)cc1)COC(=O)C(C)(C)Oc1ccc(Cl)cc1 [Compound II, 1,3-di-(2-p-chlorophenoxy-2-methylpropionyloxy)-2-(acetylsalicyloxy)-propane] | 0.92 | 73.90 | 19 | 19 | > 7500 | –
CCOC(=O)C(C)(C)Oc1ccc(Cl)cc1 [clofibrate, reference compound] | 0.83 | 65.24 | 28 | 27 | – | 1200
CC(=O)Oc1ccccc1C(=O)OC1C(OC(=O)c2ccccc2OC(C)=O)C(OC(=O)C(C)(C)Oc2ccc(Cl)cc2)C(OC(=O)C(C)(C)Oc2ccc(Cl)cc2)C(OC(=O)C(C)(C)Oc2ccc(Cl)cc2)C1OC(=O)C(C)(C)Oc1ccc(Cl)cc1 (stereo not drawn) [Compound I, 1,2-di-(acetylsalicyl)-3,4,5,6-tetra-(2-p-chlorophenoxy-2-methylpropionyl)-meso-inositol] | 0.96 | 78.25 | 14 | 15 | > 5000 | –
CC(=O)Oc1ccccc1C(=O)O [acetylsalicylic acid] | – | – | – | – | – | 1750
CC(=O)Oc1ccccc1C(=O)OCC(COC(=O)C(C)(C)Oc1ccc(Cl)cc1)OC(=O)C(C)(C)Oc1ccc(Cl)cc1 (stereo not drawn) [Compound III, 3-(acetylsalicyloxy)-1,2-di-(2-p-chlorophenoxy-2-methylpropionyloxy)-propane] | 0.91 | 75.63 | 17 | 19 | > 6200 | –
CC(=O)Oc1ccccc1C(=O)OCCOC(=O)C(C)(C)Oc1ccc(Cl)cc1 [Compound VI, 1-(acetylsalicyloxy)-2-(2-p-chlorophenoxy-2-methylpropionyloxy)-ethane] | 0.83 | 67.34 | 26 | 27 | > 6000 | –
